Literature values as cited in patent publication US11167065B2 (EUROCOR TECH GMBH, priority 2009, dated 2021).
Like-named read-outs stand apart in the source and are kept apart here.

Solubility (in dimethyl sulfoxide (DMSO), methanol, anhydrous ethanol): highly soluble | Solubility (in water): comparatively poorly soluble
Compound: CC(=O)O[C@H]1C(=O)[C@@]2(C)[C@H]([C@H](OC(=O)c3ccccc3)[C@]3(O)C[C@H](OC(=O)[C@H](O)[C@@H](NC(=O)c4ccccc4)c4ccccc4)C(C)=C1C3(C)C)[C@]1(OC(C)=O)CO[C@@H]1C[C@@H]2O (relative stereo) [Paclitaxel, [2aR-[2a,4,4a,6,9(R*,S*),11,12,12a,12b]]-(benzoylamino)-hydroxybenzene propionic acid 6,12b-bis-(acetyloxy)-12-(benzoyloxy)-2a-3,4,4a, 5,6,9, 10, 11, 12, 12a, 12b-dodecahydro-4,11-dihydroxy-4a,8,13,13-tetramethyl-5-oxo-7,11-methano-1H-cyclodeca[3,4]benz[1,2-b]oxet-9-yl ester)]
